ChEMBL document CHEMBL1142926, “A new modification of anti-tubercular active molecules” (Bioorg Med Chem, 2007)
≈ marks a conversion by molar mass, not a printed value.

Columns and labels:
[1] = system: Mycobacterium tuberculosis; experiment: Antimycobacterial activity against Mycobacterium tuberculosis H37Rv; format: functional, organism-based
[2] = system: Mycobacterium tuberculosis; experiment: Antimycobacterial activity against Mycobacterium tuberculosis H37Rv at 6.25 ug/mL; format: functional
[3] = system: Mycobacterium tuberculosis; experiment: Antimycobacterial activity against Mycobacterium tuberculosis 331/88 after 14 days; format: functional; settings: 336 h
Mycobacterium avium [4] = experiment: Antimycobacterial activity against Mycobacterium avium 330/88 after 14 days; format: functional; settings: 336 h
Mycobacterium kansasii [5] = experiment: Antimycobacterial activity against Mycobacterium kansasii 235/80 after 14 days; format: functional; settings: 336 h
Mycobacterium kansasii [6] = experiment: Antimycobacterial activity against Mycobacterium kansasii 6509/96 after 14 days; format: functional; settings: 336 h
[7] = system: Mycobacterium tuberculosis; experiment: Antimycobacterial activity against Mycobacterium tuberculosis 331/88 after 21 days; format: functional; settings: 504 h
Mycobacterium avium [8] = experiment: Antimycobacterial activity against Mycobacterium avium 330/88 after 21 days; format: functional; settings: 504 h
Mycobacterium kansasii [9] = experiment: Antimycobacterial activity against Mycobacterium kansasii 235/80 after 7 days; format: functional; settings: 168 h
Mycobacterium kansasii [10] = experiment: Antimycobacterial activity against Mycobacterium kansasii 235/80 after 21 days; format: functional; settings: 504 h
Mycobacterium kansasii [11] = experiment: Antimycobacterial activity against Mycobacterium kansasii 6509/96 after 7 days; format: functional; settings: 168 h
Mycobacterium kansasii [12] = experiment: Antimycobacterial activity against Mycobacterium kansasii 6509/96 after 21 days; format: functional; settings: 504 h
[13] = Lipophilicity, log K of the compound; format: physicochemical; settings: octanol/water
[14] = Stability within 7 days; format: physicochemical; settings: 168 h
[15] = Stability after 7 days; format: physicochemical; settings: read-out: Stability
[16] = Stability after 14 days; format: physicochemical; settings: read-out: Stability
[17] = Stability after 21 days; format: physicochemical; settings: read-out: Stability

| Structure (SMILES) | IC50 [1] [µg/mL] | MIC [1] [µg/mL] | inhibition at 6.25 µg/mL [2] [%] | MIC [3] [µM] | MIC (Mycobacterium avium [4]) [µM] | MIC (Mycobacterium kansasii [5]) [µM] | MIC (Mycobacterium kansasii [6]) [µM] | MIC [7] [µM] | MIC (Mycobacterium avium [8]) [µM] | MIC (Mycobacterium kansasii [9]) [µM] | MIC (Mycobacterium kansasii [10]) [µM] | MIC (Mycobacterium kansasii [11]) [µM] | MIC (Mycobacterium kansasii [12]) [µM] | log K [13] | Activity [14] | remaining at 168 h [15] [%] | remaining at 336 h [16] [%] | remaining at 504 h [17] [%] |
| --- | --- | --- | --- | --- | --- | --- | --- | --- | --- | --- | --- | --- | --- | --- | --- | --- | --- | --- |
| O=C(N/N=C/NCc1ccccc1)c1ccncc1 | > 10 | > 6.25 | 93 | 32 (≈ 8.14 µg/mL) | 1000 (≈ 254 µg/mL) | 1000 (≈ 254 µg/mL) | 250 (≈ 63.6 µg/mL) | 65.5 (≈ 16.7 µg/mL) | > 1000 | 500 (≈ 127 µg/mL) | 1000 (≈ 254 µg/mL) | 125 (≈ 31.8 µg/mL) | 250 (≈ 63.6 µg/mL) | 0.5426 |  |  |  |  |
| CN(C)/C=N/NC(=O)c1ccncc1 |  | > 6.25 | 1 | 16 (≈ 3.08 µg/mL) | 1000 (≈ 192 µg/mL) | 500 (≈ 96.1 µg/mL) | 250 (≈ 48.1 µg/mL) | 16 (≈ 3.08 µg/mL) | > 1000 | 250 (≈ 48.1 µg/mL) | 1000 (≈ 192 µg/mL) | 125 (≈ 24 µg/mL) | 500 (≈ 96.1 µg/mL) | 0.252 |  |  |  |  |
| O=C(N/N=C/NCc1ccccn1)c1ccncc1 | > 10 | 6.25 (≈ 24.5 µM) | 92 | 16 (≈ 4.08 µg/mL) | 1000 (≈ 255 µg/mL) | 1000 (≈ 255 µg/mL) | 125 (≈ 31.9 µg/mL) | 32 (≈ 8.17 µg/mL) | > 1000 | 1000 (≈ 255 µg/mL) | 1000 (≈ 255 µg/mL) | 62.5 (≈ 16 µg/mL) | 125 (≈ 31.9 µg/mL) | 0.3343 |  |  |  |  |
| NNC(=O)c1ccncc1 [ISONIAZID] | > 100 | 0.025 (≈ 0.182 µM) |  | 1 (≈ 0.137 µg/mL) | > 250 | > 250 | 4 (≈ 0.549 µg/mL) | 1 (≈ 0.137 µg/mL) | > 250 | > 250 | > 250 | 2 (≈ 0.274 µg/mL) | 4 (≈ 0.549 µg/mL) |  |  |  |  |  |
| O=C(N/N=C/Nc1ccc(C(=O)O)c(O)c1)c1ccncc1 | > 62.5 | 0.39 (≈ 1.3 µM) | 96 | 4 (≈ 1.2 µg/mL) | 125 (≈ 37.5 µg/mL) | 1000 (≈ 300 µg/mL) | 250 (≈ 75.1 µg/mL) | 8 (≈ 2.4 µg/mL) | 125 (≈ 37.5 µg/mL) | 500 (≈ 150 µg/mL) | 1000 (≈ 300 µg/mL) | 125 (≈ 37.5 µg/mL) | 250 (≈ 75.1 µg/mL) | 0.366 | Not Active |  |  |  |
| CN(C)/C=N/C(=O)c1cnccn1 |  | > 6.25 | 1 |  |  |  |  |  |  |  |  |  |  | 0.1718 |  |  |  |  |
| NC(=O)c1cnccn1 [PYRAZINAMIDE] |  | 6 (≈ 48.7 µM) |  | 8 (≈ 0.985 µg/mL) | > 128 | > 128 |  | 8 (≈ 0.985 µg/mL) | > 128 | > 128 | > 128 |  |  |  |  |  |  |  |
| O=C(NN/C=N/C(=O)c1cnccn1)c1ccncc1 | > 10 | 0.1 (≈ 0.37 µM) | 94 | 4 (≈ 1.08 µg/mL) | 125 (≈ 33.8 µg/mL) | 1000 (≈ 270 µg/mL) | 8 (≈ 2.16 µg/mL) | 8 (≈ 2.16 µg/mL) | 125 (≈ 33.8 µg/mL) | 500 (≈ 135 µg/mL) | 1000 (≈ 270 µg/mL) | 8 (≈ 2.16 µg/mL) | 16 (≈ 4.32 µg/mL) | 0.3562 | Not Active |  |  |  |
| O=C(O)c1cn(C2CC2)c2cc(N3CCNCC3)c(F)cc2c1=O [CIPROFLOXACIN] | > 10 | 2 (≈ 6.04 µM) | 98 | 16 (≈ 5.3 µg/mL) |  |  |  |  |  |  |  |  |  |  |  |  |  |  |
| O=C(N/N=C\N1CCN(c2cc3c(cc2F)c(=O)c(C(=O)O)cn3C2CC2)CC1)c1ccncc1 |  | 3.13 (≈ 6.54 µM) | 99 | 2 (≈ 0.957 µg/mL) | 125 (≈ 59.8 µg/mL) | 4 (≈ 1.91 µg/mL) | 4 (≈ 1.91 µg/mL) | 4 (≈ 1.91 µg/mL) | 250 (≈ 120 µg/mL) | 2 (≈ 0.957 µg/mL) | 8 (≈ 3.83 µg/mL) | 2 (≈ 0.957 µg/mL) | 8 (≈ 3.83 µg/mL) | 0.9159 |  | 30 | 10 | 3 |
| O=C(/N=C/N1CCN(c2cc3c(cc2F)c(=O)c(C(=O)O)cn3C2CC2)CC1)c1cnccn1 | > 10 | 0.78 (≈ 1.68 µM) | 100 | 2 (≈ 0.929 µg/mL) | 62.5 (≈ 29 µg/mL) | 2 (≈ 0.929 µg/mL) | 2 (≈ 0.929 µg/mL) | 4 (≈ 1.86 µg/mL) | 125 (≈ 58.1 µg/mL) | 1 (≈ 0.464 µg/mL) | 4 (≈ 1.86 µg/mL) | 2 (≈ 0.929 µg/mL) | 4 (≈ 1.86 µg/mL) | 0.97 | Not Active |  |  |  |
| O=C(N/N=C/N1CCOCC1)c1ccncc1 |  | > 6.25 | 74 |  |  |  |  |  |  |  |  |  |  | 0.2653 |  |  |  |  |
| CCC(CO)N1CCN(C(CC)CO)C1OS(=O)(=O)c1ccc(C)cc1 (centres undefined) |  | > 6.25 | 0 | 250 (≈ 96.6 µg/mL) | 500 (≈ 193 µg/mL) | 1000 (≈ 387 µg/mL) | 500 (≈ 193 µg/mL) | 500 (≈ 193 µg/mL) | 1000 (≈ 387 µg/mL) | 500 (≈ 193 µg/mL) | 1000 (≈ 387 µg/mL) | 250 (≈ 96.6 µg/mL) | 1000 (≈ 387 µg/mL) | 0.243 |  |  |  |  |
| O=C(N/N=C/NNC(=O)c1ccncc1)c1ccncc1 | > 62.5 | 0.39 (≈ 1.37 µM) | 96 |  |  |  |  |  |  |  |  |  |  | 0.3027 |  | 19 | 4 | 1 |
| O=C(/N=C/Nc1ccc(C(=O)O)c(O)c1)c1cnccn1 | > 10 | 3.13 (≈ 10.9 µM) | 98 | 8 (≈ 2.29 µg/mL) | 32 (≈ 9.16 µg/mL) | 32 (≈ 9.16 µg/mL) | 16 (≈ 4.58 µg/mL) | 16 (≈ 4.58 µg/mL) | 62.5 (≈ 17.9 µg/mL) | 16 (≈ 4.58 µg/mL) | 32 (≈ 9.16 µg/mL) | 8 (≈ 2.29 µg/mL) | 32 (≈ 9.16 µg/mL) | 0.3695 |  | 10 | 1 | 0.1 |
